Results taken from patent US20240358689A1, “Modulators Of The Beta-3 Adrenergic Receptor Useful For The Treatment Or Prevention Of Renal Cystic Disease and Cardiorenal Syndrome” (Arena Pharmaceuticals, Inc., priority 2021, published 2024).

Target: T1, Beta-3 Adrenergic Receptor (Homo sapiens, UniProt P13945)
T1 construct: expressed in transfected cells; host or cells: CHO-K1
Experiment: Homogeneous Time-Resolved Fluorescence (HTRF) cAMP antagonist assay
Format: cell-based
Conditions: Beta-3 Adrenergic Receptor IC50 Values, isoproterenol at EC90
Protocol: Example 1: IC50 Determinations in Homogeneous Time-Resolved Fluorescence (HTRF®) cAMP Antagonist Assays
HTRF cAMP assays were performed according to manufacturer's instructions (Cisbio, cAMP Dynamic 2 Assay Kit; #62AM4PEJ). CHO-K1 cells stably expressing recombinant receptor were harvested and suspended in warm PBS to make a 300,000 cells/mL stock. This cell suspension was dispensed into 384 well assay plates (PerkinElmer ProxiPlate #6008280) at 5 μL per well (1500 cells/well) along with a cAMP standard curve.
Compounds were dissolved and serially diluted (5-fold) in DMSO to generate a 10-point dose response stock. […] After a brief incubation, 2.5 μL of isoproterenol stock, prepared at a concentration 4 times its EC90 at the receptor of interest, was added to the wells. The EC90 for isoproterenol, a beta-adrenergic agonist, was determined in separate experiments using standard methods to measure agonist potencies.
Following a 1-hour incubation at room temperature, 5 μL of cAMP-D2 Reagent diluted in Lysis Buffer was added to each well followed by 5 μL of Cryptate Reagent. Plates were further incubated at room temperature for 1 hour prior to reading. Time resolved fluorescence measurements were collected on a suitable, HTRF-capable plate reader.
Counts from the plate reader were fit to the cAMP standard curve on the assay plate in order to determine cAMP concentrations in each well, and these values were used to construct dose-response curves to obtain IC50 values.

[1] = table of B compounds, CHO-K1 cells

T1 sequence (P13945 whole entry, species assumed): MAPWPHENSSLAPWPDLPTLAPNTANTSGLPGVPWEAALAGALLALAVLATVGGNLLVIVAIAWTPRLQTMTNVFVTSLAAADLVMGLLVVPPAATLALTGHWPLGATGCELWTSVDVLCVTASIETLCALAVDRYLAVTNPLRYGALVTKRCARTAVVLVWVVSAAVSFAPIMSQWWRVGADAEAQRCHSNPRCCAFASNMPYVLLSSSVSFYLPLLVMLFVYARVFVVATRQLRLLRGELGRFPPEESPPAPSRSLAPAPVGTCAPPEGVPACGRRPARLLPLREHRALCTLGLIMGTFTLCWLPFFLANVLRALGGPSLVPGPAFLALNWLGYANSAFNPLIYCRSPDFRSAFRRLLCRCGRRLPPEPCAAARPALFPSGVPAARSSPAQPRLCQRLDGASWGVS

IC50 [1] [µM]	SMILES	other results
–	O=S(=O)(c1cccc(OC[C@@H](O)CN[C@H]2COC3(CCN(S(=O)(=O)c4cnc5cc[nH]c5c4)CC3)C2)c1)C1CC1 [Compound A309, (S)-1-((R)-8-(1H-pyrrolo[3,2-b]pyridin-6-ylsulfonyl)-1-oxa-8-azaspiro[4.5]decan-3-ylamino)-3-(3-(cyclopropylsulfonyl)phenoxy)propan-2-ol]	IC50 (table of A compounds, CHO-K1 cells stably expressing recombinant receptor): 0.007 µM
0.0254	CNS(=O)(=O)c1cccc(OC[C@@H](O)CN[C@H]2COC3(CCN(S(=O)(=O)c4cncc(-c5ccc(CN)cc5)c4)CC3)C2)c1 [Compound B375, 3-((S)-3-((R)-8-(5-(4-(aminomethyl)phenyl)pyridin-3-ylsulfonyl)-1-oxa-8-azaspiro[4.5]decan-3-ylamino)-2-hydroxypropoxy)-N-methylbenzenesulfonamide]	–
0.472	CN1CCOc2ncc(S(=O)(=O)N3CCC4(CC3)C[C@@H](NC[C@H](O)COc3cccc(S(=O)(=O)N[C@@H]5CCC[C@@H]5O)c3)CO4)cc21 [Compound B437, 3-((S)-2-hydroxy-3-((R)-8-(1-methyl-2,3-dihydro-1H-pyrido[2,3-b][1,4]oxazin-7-ylsulfonyl)-1-oxa-8-azaspiro[4.5]decan-3-ylamino)propoxy)-N-((1R,2S)-2-hydroxycyclopentyl)benzenesulfonamide]	–
–	CNS(=O)(=O)c1cccc(OC[C@@H](O)CN[C@H]2COC3(CCN(c4nccc(C(=O)O)n4)CC3)C2)c1 [Compound B582, 2-((R)-3-((S)-2-hydroxy-3-(3-(N-methylsulfamoyl)phenoxy)propylamino)-1-oxa-8-azaspiro[4.5]decan-8-yl)pyrimidine-4-carboxylic acid]	IC50 (table of B compounds, cells in μM, CHO-K1 cells): ≥ 100 µM
